The values below come from patent USRE40278E1, “Heterocyclic amines having central nervous system activity” (priority 1993, dated 2008).

The target of one assay is T1, 5-HT1DA-Clone (Homo sapiens, UniProt P28221).
T1 construct: expressed in transfected cells
In words: receptor binding assay, 5-HT1DA clone (5HT ligand). The procedure: (§1) Compounds of Example 4 (Formula I where R1 and R2 are propyl, Y is hydrogen and X is —OCH3) were evaluated in an receptor binding assay (5HT Ligand) for calculation of IC50 values and Ki (nM) values. Receptor binding assays are well known tests for evaluating compounds for activity as described in “Cloning and Pharmacological Characterization of a Novel Human […] Receptor Sub-Type”, Mol. Pharm., 42 439-44 (1992), herein incorporated by reference.

A further assay has as its target T2, 5-HT1DB-Clone (Homo sapiens, UniProt P28222).
T2 construct: expressed in transfected cells
Put plainly: receptor binding assay, 5-HT1DB clone (5HT ligand). As to the method: as §1

The target of a further assay is T3, 5-HT1A-Clone (Homo sapiens, UniProt P08908).
T3 construct: expressed in transfected cells
T3 sequence (P08908 1-422): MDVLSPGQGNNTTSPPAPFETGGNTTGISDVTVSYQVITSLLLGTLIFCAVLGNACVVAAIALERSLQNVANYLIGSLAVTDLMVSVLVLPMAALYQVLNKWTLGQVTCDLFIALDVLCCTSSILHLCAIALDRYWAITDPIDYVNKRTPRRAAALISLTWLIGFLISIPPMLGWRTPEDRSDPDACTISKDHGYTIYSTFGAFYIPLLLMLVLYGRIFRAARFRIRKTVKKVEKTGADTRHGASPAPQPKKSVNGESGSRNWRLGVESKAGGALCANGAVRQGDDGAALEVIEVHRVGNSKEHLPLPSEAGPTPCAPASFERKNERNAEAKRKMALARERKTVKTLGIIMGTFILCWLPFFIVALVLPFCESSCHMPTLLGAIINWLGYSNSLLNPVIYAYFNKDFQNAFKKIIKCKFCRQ
Put plainly: receptor binding assay, 5-HT1A clone (DPAT ligand). As to the method:
as §1

Assay [1] deals with aggressive behavior of isolated male CF-1 mice. Put plainly: isolation-induced aggression assay (latency to attack an intruder mouse). The class given is in vivo. Particulars: isolated male CF-1 mice dosed p.o., intruder introduced thirty minutes later, n=6. As to the method:
Compounds of the subject invention were evaluated in an isolation-induced aggression assay to measure their ability to control or arrest aggressive behavior as measured against a saline “Control”. Male CF-1 mice (Charles River Labs) were housed singly in wire cage drawers for several weeks of isolation and aggression training. After this, the isolated mouse (weighing 30-50 g) initiated an “attack” whenever an intruder mouse was placed into his cage. Intruders were male CF-1 Charles River mice, about the same size as isolated mice and housed in groups of 12 per cage. For drug testing, the isolated mice were dosed orally (p.o.) with drug or 0.25% methylcellulose vehicle. Thirty minutes later, an intruder mouse was introduced and the latency to attack was recorded. Treatment groups (n=6), including a positive control, were tested by an observer blinded to the treatments, and there was an additional non-blinded vehicle group.

pKi: −log10 of the molar value.

T2 sequence (P28222 whole entry): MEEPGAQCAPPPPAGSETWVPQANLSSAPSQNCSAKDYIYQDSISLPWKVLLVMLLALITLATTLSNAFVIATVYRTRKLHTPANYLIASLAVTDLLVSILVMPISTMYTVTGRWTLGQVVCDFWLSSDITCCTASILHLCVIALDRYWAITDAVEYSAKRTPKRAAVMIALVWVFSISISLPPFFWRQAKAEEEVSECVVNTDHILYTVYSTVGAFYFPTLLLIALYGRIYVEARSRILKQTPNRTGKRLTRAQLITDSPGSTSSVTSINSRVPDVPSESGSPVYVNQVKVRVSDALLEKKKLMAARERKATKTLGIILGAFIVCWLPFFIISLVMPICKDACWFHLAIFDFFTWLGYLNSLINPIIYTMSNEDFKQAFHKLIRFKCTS
T1 sequence (P28221 whole entry): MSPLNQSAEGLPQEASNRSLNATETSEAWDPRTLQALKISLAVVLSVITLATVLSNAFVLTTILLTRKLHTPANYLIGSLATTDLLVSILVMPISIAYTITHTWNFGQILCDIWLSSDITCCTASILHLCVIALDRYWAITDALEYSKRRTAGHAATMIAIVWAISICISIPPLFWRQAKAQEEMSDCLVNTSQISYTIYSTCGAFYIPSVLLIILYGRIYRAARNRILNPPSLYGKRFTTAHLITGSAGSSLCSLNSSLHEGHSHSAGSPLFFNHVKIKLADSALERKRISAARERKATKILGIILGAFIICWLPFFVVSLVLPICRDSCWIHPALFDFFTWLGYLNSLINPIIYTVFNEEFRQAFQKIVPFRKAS

For `CCCN(CCC)C1Cc2cccc3c2n(c(=O)n3OC)C1` (racemic) [Ex. 4 Racemate], the negative-log Ki (pKi) at 5-HT1DA-Clone was 7.82; at 5-HT1DB-Clone it was 8.14. Moreover, at 5-HT1DB-Clone (5-HT1DB versus 5-HT1DA, conclusion from the Ki table), the “receptor selectivity (in words)” value is recorded as “selective for the 5HT1DB receptor”.

At 5-HT1A-Clone, `CCCN(CCC)[C@H]1Cc2cccc3c2n(c(=O)n3OC)C1` [Ex. 4 S-Enantiomer] showed a negative-log Ki (pKi) of 6.04.

`CN[C@@H]1Cc2cccc3c2n(c(=O)n3OC)C1` [Example 1, (R)-5-Methylamino-1-methoxy-5,6-dihydro-4H-imidazo[4,5,1-ij]quinolin-2(1H)-one]: the “latency to attack” value in assay [1] turned out to be 600 s.

Turning to `CCCN(CCC)[C@@H]1Cc2cccc3c2n(c(=O)n3OC)C1` [Ex. 4 R-Enantiomer, (R)-5-Dipropylamino-1-methoxy-5,6-dihydro-4H-imidazo[4,5,1-ij]quinolin-2(1H)-one], the values for the pKi on 5-HT1DA-Clone, at 5-HT1DB-Clone and on 5-HT1A-Clone were 7.42, 7.24 and 7.01, respectively. Moreover, the “enantiomer that carries the activity (in words)” value at 5-HT1A-Clone (comparison of R- and S-enantiomer, conclusion from the Ki table) was “the activity resides in the R-enantiomer”.

What is called pKi is the negative decadic logarithm of the Ki, by convention in mol/L. A high value points to a small Ki.
